Measurements taken from DBAASP.
Converted amounts (≈) assume the structure as drawn. Blank lines part the entries; values can stand above or below the compound they belong to.

Key:
Assay in all cases: ≥ marks a high value that may be exact or a test limit, other limits are often not marked, values filed in µg/mL are converted to µM
[1] = test system: Enterococcus faecium V286-17
[2] = test system: Escherichia coli ATCC 25922
Escherichia coli E416-7 = test system: Escherichia coli E416-7
[3] = test system: Klebsiella pneumoniae ATCC 13883
[4] = test system: Klebsiella pneumoniae E406-17
[5] = test system: Pseudomonas aeruginosa E411-17
[6] = test system: Pseudomonas aeruginosa PAO1
[7] = test system: Staphylococcus aureus JE2
[8] = test system: Staphylococcus aureus M838-17
[9] = test system: Bacillus cereus ATCC 11778
[10] = test system: Bacillus thuringiensis ATCC 10792
[11] = test system: Enterococcus faecium CCT 5079
[12] = test system: Enterococcus hirae ATCC 10541
[13] = test system: Escherichia coli ATCC 11775
[14] = test system: Escherichia coli CCT 1457
[15] = test system: Micrococcus luteus ATCC 4698
[16] = test system: Pseudomonas aeruginosa ATCC 13388
[17] = test system: Pseudomonas aeruginosa ATCC 15422
[18] = test system: Salmonella enterica subsp. enterica serovar Choleraesuis ATCC 10708
[19] = test system: Salmonella enterica subsp. enterica serovar Typhimurium ATCC 14028
[20] = test system: Staphylococcus aureus ATCC 25923
[21] = test system: Staphylococcus aureus CCT 2580
[22] = test system: Staphylococcus aureus CCT 6538
[23] = test system: Staphylococcus epidermidis ATCC 12228
[24] = test system: Streptococcus mutans AU159
[25] = test system: Streptococcus pneumoniae ATCC 11733
[26] = test system: Enterococcus faecium ATCC BAA-2316
[27] = test system: Escherichia coli ATCC 35218
[28] = test system: Pseudomonas aeruginosa ATCC BAA-2114
[29] = test system: Staphylococcus aureus ATCC 29213
[30] = test system: Staphylococcus aureus ATCC 33591
[31] = test system: Staphylococcus aureus ATCC 43300
[32] = test system: Staphylococcus aureus ATCC BAA-41
Escherichia coli C25 = test system: Escherichia coli C25
[33] = test system: Escherichia coli BW25113 ΔsbmA
Escherichia coli BW25113 = test system: Escherichia coli BW25113
Escherichia coli J2210 = test system: Escherichia coli J2210
Escherichia coli JJ2489 = test system: Escherichia coli JJ2489
Escherichia coli JW0013 = test system: Escherichia coli JW0013
[34] = test system: Escherichia coli JW0368 ΔsbmA
[35] = test system: Escherichia coli JW2778 ΔygdD
Escherichia coli MC1041 = test system: Escherichia coli MC1041
[36] = test system: Salmonella enterica subsp. enterica serovar Enteritidis MH91989
[37] = test system: Salmonella typhimurium SL1344

SMILES: CC(C)C[C@H](NC(=O)[C@H](CC(C)C)NC(=O)[C@H](CCCCN)NC(=O)[C@H](CC(C)C)NC(=O)CNC(=O)[C@H](CC(C)C)NC(=O)[C@H](CO)NC(=O)[C@H](CC(C)C)NC(=O)[C@H](CC(C)C)NC(=O)[C@H](CC(C)C)NC(=O)[C@H](CO)NC(=O)[C@H](CC(C)C)NC(=O)CN)C(N)=O [GLSLLLSLGLKLL]
MIC [1]: 4.4 µM (≈ 5.89 µg/mL)
MIC [2]: > 25 µM
MIC (Escherichia coli E416-7): ≥ 50 µM
MIC [3]: 25 µM (≈ 33.5 µg/mL)
MIC [4]: ≥ 50 µM
MIC [5]: ≥ 50 µM
MIC [6]: > 25 µM
MIC [7]: 1.56 µM (≈ 2.09 µg/mL)
MIC [8]: 3.1 µM (≈ 4.15 µg/mL)

SMILES: CC[C@H](C)[C@H](N)C(=O)N[C@@H](CC(N)=O)C(=O)N[C@@H](Cc1c[nH]c2ccccc12)C(=O)N[C@@H](CC(C)C)C(=O)N[C@@H](C)C(=O)N[C@H](C(=O)N[C@@H](C)C(=O)N[C@@H](C)C(=O)N[C@@H](CCCCN)C(=O)N[C@H](C(=O)N[C@@H](C)C(=O)NCC(=O)N[C@@H](CCSC)C(=O)N[C@@H](CC(C)C)C(N)=O)C(C)C)[C@@H](C)CC [INWLAIAAKVAGML]
MIC [9]: ≥ 85 µM
MIC [10]: ≥ 85 µM
MIC [11]: ≥ 170 µM
MIC [12]: ≥ 170 µM
MIC [13]: ≥ 340 µM
MIC [2]: 170 µM (≈ 250 µg/mL)
MIC [14]: ≥ 170 µM
MIC [15]: 10.6 µM (≈ 15.6 µg/mL)
MIC [16]: ≥ 340 µM
MIC [17]: ≥ 340 µM
MIC [18]: ≥ 340 µM
MIC [19]: 340 µM (≈ 500 µg/mL)
MIC [20]: 10.9 µM (≈ 16 µg/mL)
MIC [21]: 2.72 µM (≈ 4 µg/mL)
MIC [22]: 10.9 µM (≈ 16 µg/mL)
MIC [23]: 10.9 µM (≈ 16 µg/mL)
MIC [24]: ≥ 170 µM
MIC [25]: 0.68 µM (≈ 0.999 µg/mL)

SMILES: CC[C@H](C)[C@H](NC(=O)[C@H](CCCN=C(N)N)NC(=O)[C@@H](N)CCCN=C(N)N)C(=O)N[C@@H](CCCCN)C(=O)N[C@@H](CCCCN)C(=O)N[C@@H](CCCN=C(N)N)C(=O)N1CCC[C@H]1C(=O)N1CCC[C@H]1C(=O)N[C@@H](CCCN=C(N)N)C(=O)N[C@@H](CC(C)C)C(=O)N1CCC[C@H]1C(=O)N[C@@H](CCCN=C(N)N)C(=O)N1CCC[C@H]1C(=O)N[C@@H](CCCN=C(N)N)C(=O)N1CCC[C@H]1C(=O)N[C@@H](CCCCN)C(=O)O [RRIKKRPPRLPRPRPK]
MIC (Escherichia coli BW25113): 0.078 µM (≈ 0.16 µg/mL)
MIC (Escherichia coli J2210): 0.167 µM (≈ 0.343 µg/mL)
MIC (Escherichia coli JJ2489): 0.12 µM (≈ 0.246 µg/mL)
MIC (Escherichia coli JW0013): 0.06 µM (≈ 0.123 µg/mL)
MIC [34]: 0.06 µM (≈ 0.123 µg/mL)
MIC [35]: 0.12 µM (≈ 0.246 µg/mL)
MIC (Escherichia coli MC1041): 0.06 µM (≈ 0.123 µg/mL)
MIC [36]: 0.167 µM (≈ 0.343 µg/mL)
MIC [37]: 0.12 µM (≈ 0.246 µg/mL)

Further lines, results first:

MIC [26]: 20 µM (≈ 63.3 µg/mL)
MIC [2]: 20 µM (≈ 63.3 µg/mL)
MIC [27]: 20 µM (≈ 63.3 µg/mL)
MIC [28]: 10 µM (≈ 31.6 µg/mL)
MIC [29]: 20 µM (≈ 63.3 µg/mL)
MIC [30]: 20 µM (≈ 63.3 µg/mL)
MIC [31]: 20 µM (≈ 63.3 µg/mL)
MIC [32]: 20 µM (≈ 63.3 µg/mL)
MIC [23]: 20 µM (≈ 63.3 µg/mL)
SMILES: CC[C@H](C)[C@H](NC(=O)[C@H](CCCN=C(N)N)NC(=O)[C@H](CCC(N)=O)NC(=O)[C@@H](NC(=O)[C@@H](NC(=O)[C@H](CCCN=C(N)N)NC(=O)[C@H](CCCCN)NC(=O)[C@H](Cc1ccccc1)NC(=O)[C@@H](NC(=O)[C@@H]1CCCN1C(=O)[C@H](CO)NC(=O)[C@H](CC(C)C)NC(=O)[C@H](CCCCN)NC(=O)[C@H](CCCCN)NC(=O)[C@H](Cc1ccccc1)NC(=O)[C@H](CC(C)C)NC(=O)[C@H](CCCCN)NC(=O)[C@H](CCCCN)NC(=O)[C@H](Cc1ccccc1)NC(=O)[C@@H](N)CCCCN)C(C)C)[C@@H](C)CC)C(C)C)C(=O)N[C@@H](CCCCN)C(=O)N[C@@H](CC(=O)O)C(=O)N[C@@H](Cc1ccccc1)C(=O)N[C@@H](CC(C)C)C(=O)N[C@@H](CCCN=C(N)N)C(=O)O [KFKKLFKKLSPVFKRIVQRIKDFLR]

MIC (Escherichia coli C25): 8.5 µM (≈ 13.1 µg/mL)
MIC [20]: 17 µM (≈ 26.2 µg/mL)
SMILES: CC[C@H](C)[C@H](NC(=O)CNC(=O)[C@H](CCCN=C(N)N)NC(=O)[C@H](Cc1ccc(O)cc1)NC(=O)[C@@H](NC(=O)[C@H](CCCN=C(N)N)NC(=O)[C@H](Cc1ccccc1)NC(=O)[C@H](Cc1c[nH]c2ccccc12)NC(=O)[C@@H](N)CCCCN)C(C)C)C(=O)N[C@@H](Cc1ccc(O)cc1)C(=O)N[C@@H](CCCN=C(N)N)C(N)=O [KWFRVYRGIYR]

MIC [33]: 8 µM (≈ 24.8 µg/mL)
MIC (Escherichia coli BW25113): 1 µM (≈ 3.1 µg/mL)
SMILES: CC[C@H](C)[C@H](NC(=O)[C@@H]1CCCN1C(=O)[C@@H]1CCCN1C(=O)[C@H](CCCN=C(N)N)NC(=O)[C@H](Cc1ccccc1)NC(=O)[C@@H](N)CCCN=C(N)N)C(=O)N[C@@H](CCCN=C(N)N)C(=O)N[C@@H](CCCN=C(N)N)C(=O)N1CCC[C@H]1C(=O)N1CCC[C@H]1C(=O)N[C@H](C(=O)N[C@@H](CCCN=C(N)N)C(=O)N1CCC[C@H]1C(=O)N1CCC[C@H]1C(=O)N[C@@H](Cc1ccccc1)C(=O)N[C@@H](CCCN=C(N)N)C(=O)N1CCC[C@H]1C(=O)N1CCC[C@H]1C(=O)N[C@@H](Cc1ccccc1)C(=O)N[C@@H](CCCN=C(N)N)C(=O)N1CCC[C@H]1C(=O)N1CCC[C@H]1C(=O)N[C@H](C(=O)N[C@@H](CCCN=C(N)N)C(=O)N1CCC[C@H]1C(=O)O)C(C)C)[C@@H](C)CC [RFRPPIRRPPIRPPFRPPFRPPVRP]
